Key:
[1] = target: T1, Cytochrome P450 2C9 (Homo sapiens, UniProt P11712); assay: Inhibition of recombinant CYP2C9 (unknown origin) using fluorogenic substrate preincubated for 15 min followed by NADPH addition measured after 2 hrs by fluorescence method; type: ADME
[2] = target: T1, Cytochrome P450 2C9; assay: Inhibition of CYP2C9 in human liver microsomes using fluorogenic substrate preincubated for 15 min followed by NADPH addition measured after 2 hrs by fluorescence based assay; type: ADME, Microsome
[3] = Oral bioavailability in Sprague-Dawley rat at 2 mg/kg; type: ADME, organism-based; details: in vivo
[4] = test system: Bile acid receptor (Homo sapiens); assay: Agonist activity at human FXR expressed in HEK293 cells coexpressing human FGF19 incubated for 24 hrs by ELISA analysis relative to GW2064; details: filed as agonist
[5] = AUC (total) in C57BL6 mouse at 5 mg/kg, po; type: ADME, organism-based; design: dose 5 mg/kg, route po; details: in vivo
[6] = target: T2, Bile acid receptor (Homo sapiens, UniProt Q96RI1); assay: Agonist activity at LBD fused human FXR in HEK293 cells incubated for 30 min by envision plate reader method; type: cell-based
T2 sequence (Q96RI1 whole entry): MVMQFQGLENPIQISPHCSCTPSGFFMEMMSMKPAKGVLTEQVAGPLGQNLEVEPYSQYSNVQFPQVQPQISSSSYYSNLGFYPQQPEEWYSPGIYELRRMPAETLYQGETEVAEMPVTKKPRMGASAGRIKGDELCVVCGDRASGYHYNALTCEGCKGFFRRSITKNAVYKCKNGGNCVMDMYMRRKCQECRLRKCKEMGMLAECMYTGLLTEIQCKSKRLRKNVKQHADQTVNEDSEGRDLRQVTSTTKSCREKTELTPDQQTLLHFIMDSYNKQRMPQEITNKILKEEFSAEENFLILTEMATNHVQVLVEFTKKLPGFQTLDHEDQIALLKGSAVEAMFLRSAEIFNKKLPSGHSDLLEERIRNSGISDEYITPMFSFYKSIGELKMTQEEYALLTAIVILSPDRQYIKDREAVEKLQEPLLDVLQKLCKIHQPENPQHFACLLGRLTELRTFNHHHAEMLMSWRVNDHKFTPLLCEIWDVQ

[7] = target: T2, Bile acid receptor; assay: Agonist activity at Gal4-fused human FXR in HEK293 cells incubated for 15 min by luciferase reporter assay; type: cell-based
[8] = AUC (total) in C57BL6 mouse at 1 mg/kg, iv; type: ADME, organism-based; design: dose 1 mg/kg, route iv; details: in vivo
[9] = Clearance in C57BL6 mouse at 1 mg/kg, iv; type: ADME, organism-based; details: in vivo
[10] = target: T3, Bile acid receptor (Mus musculus, UniProt Q60641); assay: Agonist activity at mouse LBD fused FXR in HEK293 cells incubated for 30 min by envision plate reader method; type: cell-based
T3 sequence (Q60641 whole entry): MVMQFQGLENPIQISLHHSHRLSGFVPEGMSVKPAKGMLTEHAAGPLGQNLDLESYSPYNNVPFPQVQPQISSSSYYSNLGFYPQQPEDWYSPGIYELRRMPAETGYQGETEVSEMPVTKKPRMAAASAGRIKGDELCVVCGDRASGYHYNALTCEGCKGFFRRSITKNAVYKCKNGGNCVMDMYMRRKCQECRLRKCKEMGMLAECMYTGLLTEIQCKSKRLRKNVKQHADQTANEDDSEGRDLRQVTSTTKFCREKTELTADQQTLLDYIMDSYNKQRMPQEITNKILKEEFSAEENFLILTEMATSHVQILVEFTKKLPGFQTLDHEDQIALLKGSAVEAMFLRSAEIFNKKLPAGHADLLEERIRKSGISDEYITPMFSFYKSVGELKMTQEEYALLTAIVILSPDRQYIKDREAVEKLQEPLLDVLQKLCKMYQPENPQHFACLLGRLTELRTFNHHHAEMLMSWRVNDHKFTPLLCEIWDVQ

[11] = Oral bioavailability in C57BL6 mouse at 5 mg/kg; type: ADME, organism-based; details: in vivo
[12] = Half life in Sprague-Dawley rat at 1 mg/kg, iv; type: ADME, organism-based; details: in vivo
[13] = target: Bile salt export pump (Homo sapiens, UniProt O95342); assay: Inhibition of BSEP (unknown origin)
Chain of Bile salt export pump (O95342 whole entry): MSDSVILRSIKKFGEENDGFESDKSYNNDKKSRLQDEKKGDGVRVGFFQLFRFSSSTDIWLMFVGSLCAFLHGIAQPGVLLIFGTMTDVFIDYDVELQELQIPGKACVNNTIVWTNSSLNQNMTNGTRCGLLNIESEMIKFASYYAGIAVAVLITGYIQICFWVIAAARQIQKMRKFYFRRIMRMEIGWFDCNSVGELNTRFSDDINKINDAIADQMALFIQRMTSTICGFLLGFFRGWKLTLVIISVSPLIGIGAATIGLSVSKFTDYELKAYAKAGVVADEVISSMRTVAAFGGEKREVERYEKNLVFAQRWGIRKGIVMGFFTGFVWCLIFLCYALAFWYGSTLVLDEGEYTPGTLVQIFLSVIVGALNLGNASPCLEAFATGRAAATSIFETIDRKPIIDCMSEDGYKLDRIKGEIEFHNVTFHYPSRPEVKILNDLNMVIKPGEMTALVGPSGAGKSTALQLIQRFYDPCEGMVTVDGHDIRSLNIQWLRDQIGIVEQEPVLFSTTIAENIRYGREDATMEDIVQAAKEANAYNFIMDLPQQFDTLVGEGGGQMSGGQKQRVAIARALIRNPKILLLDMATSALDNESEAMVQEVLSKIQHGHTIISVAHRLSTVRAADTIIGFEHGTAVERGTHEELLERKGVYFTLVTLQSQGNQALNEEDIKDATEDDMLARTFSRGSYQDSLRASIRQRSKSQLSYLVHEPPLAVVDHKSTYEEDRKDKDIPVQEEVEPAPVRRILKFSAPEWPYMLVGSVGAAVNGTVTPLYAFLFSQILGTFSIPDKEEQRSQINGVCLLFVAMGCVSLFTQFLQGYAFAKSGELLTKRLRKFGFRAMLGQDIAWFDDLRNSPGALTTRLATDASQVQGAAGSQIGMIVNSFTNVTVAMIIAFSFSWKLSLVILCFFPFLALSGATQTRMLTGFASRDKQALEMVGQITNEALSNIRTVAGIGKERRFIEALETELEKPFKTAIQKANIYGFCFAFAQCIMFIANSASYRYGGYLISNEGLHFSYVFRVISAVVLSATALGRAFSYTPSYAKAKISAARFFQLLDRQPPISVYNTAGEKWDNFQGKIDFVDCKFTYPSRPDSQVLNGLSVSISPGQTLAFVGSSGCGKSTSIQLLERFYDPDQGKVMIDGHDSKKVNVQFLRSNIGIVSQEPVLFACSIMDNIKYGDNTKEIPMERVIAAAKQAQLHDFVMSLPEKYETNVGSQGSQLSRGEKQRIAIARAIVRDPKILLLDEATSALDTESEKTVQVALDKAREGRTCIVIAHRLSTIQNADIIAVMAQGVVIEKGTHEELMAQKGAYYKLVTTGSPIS

[14] = Metabolic stability in mouse liver microsome assessed as parent compound remaining at […] measured after 10 mins; type: ADME; details: liver microsomes, read-out: Stability
[15] = target: Voltage-gated inwardly rectifying potassium channel KCNH2 (Homo sapiens, UniProt Q12809); assay: Inhibition of hERG by patch clamp assay; type: toxicity
Chain of Voltage-gated inwardly rectifying potassium channel KCNH2 (Q12809 whole entry, the tested form may be a part): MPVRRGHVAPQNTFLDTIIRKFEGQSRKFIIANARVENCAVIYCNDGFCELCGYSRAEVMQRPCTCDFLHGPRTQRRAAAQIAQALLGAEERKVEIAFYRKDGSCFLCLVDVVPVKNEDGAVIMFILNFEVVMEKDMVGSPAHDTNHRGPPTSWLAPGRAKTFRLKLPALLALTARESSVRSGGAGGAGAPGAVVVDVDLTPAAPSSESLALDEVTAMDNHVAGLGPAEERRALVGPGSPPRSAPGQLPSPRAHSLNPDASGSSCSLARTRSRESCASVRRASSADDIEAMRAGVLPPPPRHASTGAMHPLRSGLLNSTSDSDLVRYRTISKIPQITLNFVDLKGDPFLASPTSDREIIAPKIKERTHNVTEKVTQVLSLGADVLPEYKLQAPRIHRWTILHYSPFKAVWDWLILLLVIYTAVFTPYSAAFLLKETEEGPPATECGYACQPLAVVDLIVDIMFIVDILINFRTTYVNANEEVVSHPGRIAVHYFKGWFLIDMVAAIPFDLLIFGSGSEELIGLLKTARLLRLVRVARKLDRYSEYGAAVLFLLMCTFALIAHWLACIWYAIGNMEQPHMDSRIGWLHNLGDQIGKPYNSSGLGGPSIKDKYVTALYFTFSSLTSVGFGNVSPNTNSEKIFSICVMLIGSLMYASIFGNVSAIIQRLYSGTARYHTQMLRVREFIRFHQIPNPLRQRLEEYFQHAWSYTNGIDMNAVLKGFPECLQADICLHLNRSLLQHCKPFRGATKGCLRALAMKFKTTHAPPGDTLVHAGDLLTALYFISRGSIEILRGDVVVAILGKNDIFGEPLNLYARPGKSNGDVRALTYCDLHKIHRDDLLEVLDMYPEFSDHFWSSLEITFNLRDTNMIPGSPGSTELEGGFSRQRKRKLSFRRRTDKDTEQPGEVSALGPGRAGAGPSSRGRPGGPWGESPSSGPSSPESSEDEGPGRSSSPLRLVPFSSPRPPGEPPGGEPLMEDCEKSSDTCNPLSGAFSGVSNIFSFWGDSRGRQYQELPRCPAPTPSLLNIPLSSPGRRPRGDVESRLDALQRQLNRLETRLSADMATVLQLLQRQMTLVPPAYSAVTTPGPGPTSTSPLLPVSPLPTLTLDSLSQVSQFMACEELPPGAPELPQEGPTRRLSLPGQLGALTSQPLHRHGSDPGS

[16] = target: T4, Bile acid receptor (Homo sapiens) (UniProt Q96RI1); assay: Agonist activity at LBD-fused human FXR in HEK293 cells incubated for 30 min by envision plate reader method relative to GW2064; type: cell-based; details: filed as agonist
T4 sequence (whole entry): T2 sequence (Q96RI1 whole entry)

[17] = target: T5, Solute carrier organic anion transporter family member 1B3 (Homo sapiens, UniProt Q9NPD5); assay: Inhibition of OATP1B3 (unknown origin)
T5 sequence (Q9NPD5 whole entry): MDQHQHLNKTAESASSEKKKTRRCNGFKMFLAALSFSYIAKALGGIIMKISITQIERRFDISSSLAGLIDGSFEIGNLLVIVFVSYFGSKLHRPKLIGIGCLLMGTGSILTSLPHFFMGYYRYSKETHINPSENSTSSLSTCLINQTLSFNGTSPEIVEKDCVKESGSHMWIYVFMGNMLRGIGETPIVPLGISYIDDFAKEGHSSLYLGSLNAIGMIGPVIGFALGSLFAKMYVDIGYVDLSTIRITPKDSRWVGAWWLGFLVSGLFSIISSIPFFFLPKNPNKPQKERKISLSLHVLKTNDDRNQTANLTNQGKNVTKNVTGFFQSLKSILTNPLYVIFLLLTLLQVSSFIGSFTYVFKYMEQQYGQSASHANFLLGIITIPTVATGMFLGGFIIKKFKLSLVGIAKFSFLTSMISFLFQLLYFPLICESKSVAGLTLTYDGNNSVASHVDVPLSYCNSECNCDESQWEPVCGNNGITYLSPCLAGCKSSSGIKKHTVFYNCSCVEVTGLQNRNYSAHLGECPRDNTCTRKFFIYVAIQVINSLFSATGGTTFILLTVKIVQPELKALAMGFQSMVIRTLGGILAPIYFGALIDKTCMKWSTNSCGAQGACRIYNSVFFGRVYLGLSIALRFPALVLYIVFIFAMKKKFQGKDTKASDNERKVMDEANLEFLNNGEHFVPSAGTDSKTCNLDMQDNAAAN

T1 sequence (P11712 whole entry): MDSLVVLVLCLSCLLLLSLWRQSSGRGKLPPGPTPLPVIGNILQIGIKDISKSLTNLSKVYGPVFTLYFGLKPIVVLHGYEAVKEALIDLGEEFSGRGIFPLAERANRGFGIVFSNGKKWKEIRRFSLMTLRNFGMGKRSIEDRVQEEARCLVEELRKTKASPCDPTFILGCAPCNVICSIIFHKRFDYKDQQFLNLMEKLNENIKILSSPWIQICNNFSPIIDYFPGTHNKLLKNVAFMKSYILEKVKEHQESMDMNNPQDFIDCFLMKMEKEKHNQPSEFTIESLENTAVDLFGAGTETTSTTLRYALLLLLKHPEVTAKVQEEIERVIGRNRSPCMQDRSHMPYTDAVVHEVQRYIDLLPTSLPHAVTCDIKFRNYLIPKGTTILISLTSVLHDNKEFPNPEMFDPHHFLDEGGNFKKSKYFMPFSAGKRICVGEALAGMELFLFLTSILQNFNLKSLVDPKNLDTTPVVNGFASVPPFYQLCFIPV

IC50 [1]: 5000 nM | IC50 [2]: 8000 nM | bioavailability [3]: 40% | Emax [4]: 89% | AUC [5]: 56.6 µM·h | EC50 [6]: 42 nM | EC50 [7]: 34 nM | AUC [8]: 16.4 µM·h | clearance [9]: 1.6 mL/min/kg | EC50 [10]: 14 nM | bioavailability [11]: 69% | half-life [12]: 18 h | remaining at 10 min [14]: 90% | Emax [16]: 189% | IC50 [17]: 13500 nM
Structure (SMILES): CC(C)(O)c1ccc(-c2cccc(N(CC34CCC(c5noc(C(C)(C)F)n5)(CC3)CC4)C(=O)[C@H]3C[C@](O)(C(F)(F)F)C3)c2)cc1
IC50 [13]: 1400 nM | IC50 [15]: 4500 nM
